# Assay results as given in patent US12215354B2, “Differentiation of human embryonic stem cells into single hormonal insulin positive cells” (Janssen Biotech, Inc., priority 2011, dated 2025).
# Test system: human embryonic stem cell line H1
# Assay: Immune staining for insulin, glucagon and somatostatin hormones at end of stage 5 (Example 11)
# Assay type: cell-based
# Settings: percentage of the entire hormone count, 0.25 mM ascorbic acid
# Method: Cells of the human embryonic stem cell line H1 at various passages (passage 40 to passage 52) were seeded as single cells at a density of 100,000 cells/cm^2 on MATRIGEL™ (1:30 dilution) coated dishes in mTesr™1 media and 10 μM of Y27632. Forty eight hours post seeding, cultures were differentiated into pancreatic endocrine lineage as follows: • a. Stage 1 (Definitive Endoderm (DE)−3 days): Prior to start of DE, the cultures were washed and incubated with incomplete PBS (no Mg or Ca) for 30 seconds followed by addition of the stage 1 media. Human embryonic stem cells cultured as single cells on MATRIGEL™-coated dishes were treated with MCDB-131 medium supplemented with 0.1% fatty acid-free BSA, 0.0012 g/ml sodium bicarbonate, 1× GLUTAMAX™, 5 mM D-Glucose, 100 ng/ml GDF8, and 1 μM MCX compound (GSK3B inhibitor) for one day. Cells were then treated with MCDB-131 medium supplemented with 0.1% fatty acid-free BSA, 0.0012 g/ml sodium bicarbonate, 1× GLUTAMAX™, 5 mM glucose, 100 ng/ml GDF8, and 100 nM MCX compound for day two, followed by an additional day in MCDB-131 medium supplemented with 0.1% fatty acid-free BSA, 0.0012 g/ml sodium bicarbonate, 1× GLUTAMAX™, 5 mM Glucose, and 100 ng/ml GDF8. • b. Stage 2 (Primitive gut tube−2 days): Stage 1 cells were treated with MCDB-131 medium supplemented with 0.1% fatty acid-free BSA, 0.0012 g/ml sodium bicarbonate, 1× GLUTAMAX™, 5 mM D-Glucose, and 25 ng/ml FGF7 for two days. • c. Stage 3 (Foregut−2 days): Stage 2 cells were treated with MCDB-131 medium supplemented with 1:200 dilution of ITS-X, 2.5 mM Glucose, 1× GLUTAMAX™, 0.0015 g/ml sodium bicarbonate, 2% fatty acid-free BSA, 10 ng/ml Activin A, 25 ng/ml FGF7, 0.25 μM SANT-1, 1 μM RA, 200 nM TPB (PKC activator), 100 nM LDN-193189 (BMP receptor inhibitor) for one day. Cells were then treated with MCDB-131 medium supplemented with 1:200 dilution of ITS-X, 2.5 mM Glucose, 1× GLUTAMAX™, 0.0015 g/ml sodium bicarbonate, 2% fatty acid-free BSA, 10 ng/ml Activin A, 25 ng/ml FGF7, 0.25 μM SANT-1, 1 μM RA, 200 nM TPB (PKC activator), 10 nM LDN-193189 for an additional day. […]
compound,measurement,value
O=C1O[C@H]([C@@H](O)CO)C(O)=C1O [ascorbic acid],% Polyhormonal,36%
same,% glucagon + plus % somatostatin+,44%
same,% single hormonal Insulin+,55%
